Results: patent US20250051324A1, “PARP INHIBITOR, PHARMACEUTICAL COMPOSITION COMPRISING SAME, AND USE THEREOF” (KEYTHERA (SUZHOU) BIO-PHARMACEUTICALS CO., LIMITED, priority 2021, published 2025)

How the values were obtained:
PARP1 [1] = target: T1, PARP1 (Homo sapiens (Human), UniProt P09874); test: PARP1 trapping assay; assay type: biochemical; conditions: read-out: Inhibitory Effect on PARP1 Trapping IC50
Protocol: [table] […] 1. A 4× enzyme reaction mixture, comprising PARP1, PARP2, and GST-Tb antibody, was prepared with the buffer and 4 μL of the enzyme reaction mixture was added to a 384-well plate. 2. A 4×PARP1 and PARP2 probe reaction mixture was prepared with the buffer and 4 μL of the probe reaction mixture was added to the 384-well plate. 3. A series of gradient-diluted compounds were prepared and 4 μL of the diluted compounds were added to the 384-well plate, and incubated at room temperature for 45 minutes. 4. After incubation, 4 μL of 4×NAD reaction mixture was added to the 384-well plate and incubated at room temperature for 10 minutes. 5. After incubation, the plate was read using a plate reader. 6. Data Analysis: The percentage inhibition rate was calculated as follows: Inhibition Rate (%)=(Reading of Compound Group−Reading of Blank Group)/(Reading of Vehicle Control Group−Reading of Blank Group).

[2] = tested on: MDA-MB-436 breast cancer cells; test: Cell proliferation assay, MDA-MB-436; assay type: cell-based; conditions: Homo sapiens, MDA-MB-436, 168 h; proliferation, 7 days; read-out: MDA-MB-436 Cell IC50
Protocol: Experimental Materials: MDA-MB-436 or UWB1.289 cell lines were purchased from Cobioer Biosciences Co. Ltd. (Nanjing, China). The STR identification results were a complete match, and mycoplasma testing was negative. MDA-MB-436 cells were cultured in DMEM complete medium containing 10% fetal bovine serum, 1% penicillin-streptomycin, 1% insulin, and 16 μg/mL glutathione; UWB1.289 cells were cultured in RMPI1640 complete medium containing 10% fetal bovine serum and 1% penicillin-streptomycin.
1. MDA-MB-436 or UWB1.289 cells were cultured in the aforementioned medium (culture conditions: 37° C., 5.0% CO2 in air) until they reached the logarithmic growth phase. The cells were then digested with trypsin containing 0.25% EDTA, centrifuged at 1000 rpm, and the supernatant was discarded. Cell culture medium was added, and the cell suspension was adjusted to 2×10^4/mL after counting. 135 μL of the cell suspension per well was taken and cultured in a 96-well cell culture plate for 16 hours (culture conditions: 37° C., 5.0% CO2 in air).
2. The test compounds, stored at a concentration of 10 mM, were diluted 2.5 times with DMSO and then serially diluted in a 1:3 gradient (9 gradients). The gradient-diluted samples were further diluted 40 times with serum-free medium, and 15 μL of each was added to the 96-well cell culture plate. The positive control group received serum-free medium containing the same concentration of DMSO, and the negative control group received medium without cells. The cells were then cultured for an additional 7 days.
3. After the culture period, the cell culture plate was placed at room temperature for 30 minutes. Then, 100 μL of CellCounting-Lite 2.0 reagent (Vazyme, #DD1101) was added to each well, mixed thoroughly, and incubated in the dark at room temperature for 10 minutes. The luminescence signal was read using a Synergy HTX multi-mode reader.
(§1) 4. Data analysis was performed using GraphPad Prism 8.0 software. The inhibition rate (%) was calculated as 100*(average luminescence signal of the positive control group−luminescence signal of the compound)/(average luminescence signal of the positive control group−average luminescence signal of the negative control group). The IC50 value was obtained by plotting the logarithm of the compound concentration against the percentage inhibition rate.

[3] = Liver microsome metabolism assay; conditions: CD1, mouse, liver microsomes
PARP1 [4] = target: T1, PARP1; test: PARP enzyme activity assay (PARP1 chemiluminescent assay kit); assay type: biochemical; conditions: enzyme inhibitory activity, read-out: PARP-1 IC50
Description: Experimental Materials: The PARP1 assay kit was purchased from BPS Bioscience, USA, specifically the 384-well chemiluminescent assay kit (Catalog No.: #80551).
Experimental Principle: PARP can catalyze the transfer of ADP-ribose residues from NAD+ to target substrates, thereby modifying proteins through ribosylation. This experiment measures PARP1 enzyme activity by detecting the poly(ADP-ribosylation) of histones by PARP1.
Preparation of Reagents and Test Compounds: The 10× assay buffer included in the kit was diluted to 1× with distilled water. The test compound (stock concentration of 10 mM) was diluted to 10 μM with a DMSO solution and then serially diluted in a 1:3 ratio. The serially diluted compounds were further diluted 10-fold with the 1× assay buffer.
Experimental Method: The procedure was carried out according to the kit's instructions:
1. The 5× histone mixture was diluted to 1× with PBS, and 25 μL was added to each well of a 384-well plate, incubating overnight at 4° C.
2. After incubation, 100 μL of PBST (0.05% Tween 20) was added to each well for washing, repeated three times. Then, 100 μL of blocking solution was added to each well and incubated at room temperature for 90 minutes.
3. After incubation, the wells were washed three times with PBST, and then 1.25 μL of 10× assay buffer, 1.25 μL of 10×PARP assay mixture, 2.5 μL of activation DNA (5×), and 7.5 μL of distilled water were added to each well.
4. […] The positive control group and the negative control group were added with 1× assay buffer containing the same concentration of DMSO.
5. Next, 10 μL of 2.5 ng/μL PARP1 enzyme was added to the test compound and positive control groups, while 10 μL of 1× assay buffer was added to the negative control group, and the mixture was incubated at room temperature for 60 minutes.
6. Streptavidin-HRP was diluted 1:50 with the blocking solution. After incubation, the plate was washed three times with PBST, and 25 μL of the diluted streptavidin-HRP solution was added to each well, incubating at room temperature for 30 minutes.
7. After incubation, the plate was washed three times with PBST, and 50 μL of the mixed substrate A and substrate B in equal volumes was added. The luminescence signal was immediately read on a Synergy HTX multi-mode reader.
as §1, with “8.” for “4.”, “%=100*(average” for “(%) was calculated as 100*(average”

[5] = Evaluation of pharmacokinetics in mice; conditions: male, ICR (CD1), mouse, plasma, po, 10 mg/kg
[6] = tested on: human breast cancer (MDA-MB-436) cell line; test: Mouse CDX tumor model (MDA-MB-436 subcutaneous xenograft); assay type: in vivo
Protocol: Test Objective: The efficacy of the compounds was evaluated in a subcutaneous xenograft model of human breast cancer (MDA-MB-436) cell line in mice.
(§2) Test Compounds: Olaparib, Compound 1
Experimental Animals: Female NOD SCID mice, 4-5 weeks old, purchased from Nanjing Jicui.
(§3) Housing and Management: The experimental animals were housed in SPF-grade, temperature- and humidity-controlled clean rooms, using individually ventilated cages (IVC) with no more than 5 mice per cage. Temperature/humidity was controlled within the range of (23±3)° C./40-70%. Feed and water: SPF-grade mouse feed, sterilized by cobalt-60 irradiation. Drinking water was ultrafiltered and autoclaved. Animals had free access to sterile food and water. Animal identification: ear tags.
Tumor Cell Line and Tumor Model: MDA-MB-436 cells (Nanjing Cobioer Biotechnology Co., Ltd., Cat. No: CBP60385) were cultured in vitro in DMEM complete medium containing 10% fetal bovine serum, 1% penicillin-streptomycin, 1% insulin, and 16 μg/mL glutathione (37° C., 5% CO2). When the cells met the requirements for the in vivo efficacy experiment, they were collected, counted, and prepared into a PBS cell suspension. Each mouse (5-6 weeks old NOD SCID) was inoculated subcutaneously on the right flank with 0.9×10^7 cells. Tumor volume was measured and calculated three times a week after inoculation. When the tumor volume reached approximately 200-300 mm^3, the mice were grouped for administration.
Experimental Groups: The experiment was divided into the following groups: vehicle control group; Olaparib 100 mg/kg group; Compound 1 0.1 mg/kg group; Compound 1 0.3 mg/kg group; and Compound 1 1.0 mg/kg group. All groups were administered orally by gavage once daily. […] After 28 days of administration, the tumor volume was used to calculate the tumor growth inhibition rate (TGI %), and the tumor inhibition effect was statistically analyzed using software such as Excel, etc.

[7] = tested on: peripheral blood reticulocytes; test: Effect of compound on rat reticulocytes; assay type: in vivo; conditions: 4 days
Protocol: Test Objective: The effect of the compound on peripheral blood reticulocytes was evaluated to determine its impact on bone marrow hematopoietic function.
as §2
as §3, with “Experimental Animals: Male Sprague Dawley rats were purchased from Beijing Charles River Laboratory Animal Technology Co., Ltd. Housing” for “Housing”, “rats” for “mice”, “rat” for “mouse”
Experimental Method: The experiment was divided into the following 5 groups: vehicle control group; Olaparib 100 mg/kg; Compound 1 0.1 mg/kg; Compound 1 0.3 mg/kg; and Compound 1 1.0 mg/kg. All treatments were administered orally by gavage once daily for 4 days. Blood samples were collected before and after treatment to measure peripheral blood reticulocyte counts.

[8] = Evaluation of pharmacokinetics in rats; assay type: in vivo; conditions: male, SD, rat, plasma, 1 mg/kg, oral gavage (PO, 1 mpk)
Description: Test Animals: 6-8 Week Old Male SD Rats
Food was restored two hours after dosing.

T1 sequence (P09874 whole entry): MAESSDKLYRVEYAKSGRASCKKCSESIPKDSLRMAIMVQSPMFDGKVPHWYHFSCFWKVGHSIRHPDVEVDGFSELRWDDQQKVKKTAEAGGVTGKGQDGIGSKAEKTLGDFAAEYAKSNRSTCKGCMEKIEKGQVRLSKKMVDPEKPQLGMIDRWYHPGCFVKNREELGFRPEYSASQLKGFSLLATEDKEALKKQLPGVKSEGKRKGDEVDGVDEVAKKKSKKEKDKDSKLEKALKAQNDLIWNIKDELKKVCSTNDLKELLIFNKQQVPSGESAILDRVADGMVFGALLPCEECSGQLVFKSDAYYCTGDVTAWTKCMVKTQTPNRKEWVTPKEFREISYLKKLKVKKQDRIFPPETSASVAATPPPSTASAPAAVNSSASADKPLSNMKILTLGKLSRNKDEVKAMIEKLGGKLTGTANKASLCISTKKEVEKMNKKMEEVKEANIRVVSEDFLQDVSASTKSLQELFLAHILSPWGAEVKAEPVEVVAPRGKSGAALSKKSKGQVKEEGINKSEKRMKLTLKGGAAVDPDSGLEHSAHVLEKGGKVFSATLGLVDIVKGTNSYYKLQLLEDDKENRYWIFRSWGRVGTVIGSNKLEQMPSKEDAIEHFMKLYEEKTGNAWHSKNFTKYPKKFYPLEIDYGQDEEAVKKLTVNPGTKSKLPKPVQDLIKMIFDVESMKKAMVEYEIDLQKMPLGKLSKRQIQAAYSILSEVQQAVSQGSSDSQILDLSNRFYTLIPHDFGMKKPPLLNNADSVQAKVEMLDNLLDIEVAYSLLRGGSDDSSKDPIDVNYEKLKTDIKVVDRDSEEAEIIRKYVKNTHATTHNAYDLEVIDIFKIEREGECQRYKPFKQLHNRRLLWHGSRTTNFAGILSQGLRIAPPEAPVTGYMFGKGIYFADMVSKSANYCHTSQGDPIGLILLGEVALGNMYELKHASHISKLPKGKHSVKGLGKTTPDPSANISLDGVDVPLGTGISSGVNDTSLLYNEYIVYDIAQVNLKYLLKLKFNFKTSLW

Row | SMILES | IC50 (PARP1 [1]) | IC50 [2] | microsomal CLint at 1 µM [3] | AUC(0-inf) [5] | Cmax [5] | half-life [5] | also measured
1 | Cc1c(C(F)(F)F)c(=O)[nH]c2cc(CN3CCN(c4cc5c(cn4)C(=O)NC5)CC3)cnc12 [Compound 15, 4-methyl-7-((4-(3-oxo-2,3-dihydro-1H-pyrrolo[3,4-c]pyridin-6-yl)piperazin-1-yl)methyl)-3-(trifluoromethyl)-1,5-naphthyridin-2(1H)-one] |  |  | 0.75 µL/min/mg |  |  |  | IC50 (PARP1 [4]): 3.48 nM
2 | O=C(c1cc(Cc2n[nH]c(=O)c3ccccc23)ccc1F)N1CCN(C(=O)C2CC2)CC1 [Olaparib, reference compound] |  |  |  |  |  |  | Tumor Growth Inhibition Rate (TGI) ([6]; 100 mg/kg oral once daily, 28 days): 89%; Body weight vs vehicle control group ([6]; MDA-MB-436 model, all treatment groups): no significant difference; Reticulocyte Inhibition Rate ([7]; 100 mg/kg oral once daily): 91.6%; Effect on peripheral blood reticulocytes (in words) ([7]; 100 mg/kg, p<0.01): significantly reduced
3 | CCc1cc2ncc(CN3CCN(c4ccc(C(=O)NC)nc4)CC3)cc2[nH]c1=O [AZD5305, reference compound] |  |  | 1.23 µL/min/mg | 357 µg·h/mL | 37300 ng/mL | 495 min | AUC(0-inf) [8]: 5600 ng·h/mL; Cmax [8]: 1400 ng/mL; half-life [8]: 245 min
4 | CNC(=O)c1ccc(N2CCN(Cc3cc4[nH]c(=O)c(C(F)(F)F)c(C)c4cn3)[C@H](C)C2)cn1 [Compound 87, (R)—N-methyl-5-(3-methyl-4-((4-methyl-2-oxo-3-(trifluoromethyl)-1,2-dihydro-1,6-naphthyridin-7-yl)methyl)piperazin-1-yl)picolinamide] | 2.57 nM | 5.73 nM | 1.01 µL/min/mg |  |  |  | 
5 | CNC(=O)c1ccc(N2CCN(Cc3cc4[nH]c(=O)c(C(F)(F)F)c(C)c4cn3)C[C@H]2C)cn1 [Compound 88, (R)—N-methyl-5-(2-methyl-4-((4-methyl-2-oxo-3-(trifluoromethyl)-1,2-dihydro-1,6-naphthyridin-7-yl)methyl)piperazin-1-yl)picolinamide] | 1.55 nM | 5.75 nM | 0.84 µL/min/mg | 1650 µg·h/mL | 38200 ng/mL | 1580 min | 
6 | CNC(=O)c1ccc(N2CCN(C(C)c3cnc4c(C)c(C(F)(F)F)c(=O)[nH]c4c3)CC2)cn1 (stereo not drawn) [Compound 24, N-methyl-5-(4-(1-(8-methyl-6-oxo-7-(trifluoromethyl)-5,6-dihydro-1,5-naphthyridin-3-yl)ethyl)piperazin-1-yl)picolinamide] |  | 4.32 nM | 0.4 µL/min/mg | 1100 µg·h/mL | 26300 ng/mL | 1720 min | 

Further lines, with some results ahead:

Row | IC50 (PARP1 [1]) | IC50 [2] | microsomal CLint at 1 µM [3] | AUC(0-inf) [5] | Cmax [5] | half-life [5] | SMILES | also measured
7 | 2.9 nM | 3.24 nM | 0.3 µL/min/mg |  |  |  | CNC(=O)c1ccc(N2CCN([C@@H](C)c3cnc4c(C)c(C(F)(F)F)c(=O)[nH]c4c3)CC2)cn1 [Compound 91, (S)—N-methyl-5-(4-(1-(8-methyl-6-oxo-7-(trifluoromethyl)-5,6-dihydro-1,5-naphthyridin-3-yl)ethyl)piperazin-1-yl)picolinamide] | 
8 | 4.33 nM | 7.26 nM | 0.21 µL/min/mg | 1360 µg·h/mL | 49900 ng/mL | 1210 min | CNC(=O)c1ccc(N2CCN([C@H](C)c3cnc4c(C)c(C(F)(F)F)c(=O)[nH]c4c3)CC2)cn1 [Compound 90, (R)—N-methyl-5-(4-(1-(8-methyl-6-oxo-7-(trifluoromethyl)-5,6-dihydro-1,5-naphthyridin-3-yl)ethyl)piperazin-1-yl)picolinamide] | 
